Reference: patent US20240189344A1, “METHODS USING CARBON DIOXIDE AND OXYGEN TO IMPROVE CHARACTERISTICS OF POULTRY” (priority 2022, published 2024)

Key:
[1] = tested on: fertilized Ross 708 chicken eggs; assay: Percent of fertile eggs hatched at end of 21 days of incubation under controlled CO2; format: in vivo
Method: (§1) 900 fertilized eggs from a commonly used commercial chicken strain, Ross 708, that were less than 1 week old since being laid, and laid in the same laying facility by layers (chickens) of the same age, were split equally into three batches of 300 each. One batch, referred to as control batch, was incubated for 18 days in an atmosphere in which no additional CO2 was injected into this atmosphere from any source outside the egg. For this batch, the CO2 concentration inside the incubator varied between the CO2 concentration of the ambient atmosphere (i.e. about 409 ppm) and as high as 1,500 ppm (resulting from CO2 generation by the eggs themselves). The second batch, referred to as 4,000 ppm test CO2 batch or 0.4% CO2 test batch, was incubated for 18 days wherein the CO2 concentration in the incubator from the start of the first day through the end of the eighteenth day was maintained at 4,000 ppm (i.e. 0.4% CO2) by occasional injections of CO2 as necessary. The third batch, referred to as 10,000 ppm test CO2 batch or 1% CO2 test batch, was incubated for 18 days according to Regimen 1 described herein, wherein the CO2 concentration in the incubator from the start of the first day through the end of the eighteenth day was maintained at 10,000 ppm (i.e. 1% CO2) by occasional injections of CO2 as necessary. All three batches were incubated at approximately 100° F. and between 30% and 70% relative humidity. At the end of the eighteenth day of incubation, all three batches of eggs were transferred to hatcher equipment, where the eggs hatched over the next 3 days. No external CO2 was injected into the hatcher from any source outside the eggs for this period of 3 days. Thus, the only difference between the conditions under which the three batches were incubated was that in the control batch no additional CO2 was injected, whereas for the other two batches additional, external CO2 was injected to subject the eggs to CO2 concentrations of 4,000 ppm and 10,000 ppm respectively. During the incubation period the oxygen concentration in the control incubator was always above 20%, whereas in the 4,000 ppm and 10,000 ppm CO2 controlled incubators, the oxygen level was typically above 19%.
(§2) 600 fertilized eggs from a commonly used commercial chicken strain, Ross 708, that were less than 1 week old since being laid, and laid in the same laying facility by layers (chickens) of the same age, were split equally into batches of 300 each. One batch, referred to as control batch, was incubated for 18 days in an atmosphere in which no additional CO2 was injected into this atmosphere from any source outside the egg. […]

[2] = tested on: Ross 708 chickens (Woody Breast); assay: Woody Breast scores by manual palpation in chickens hatched from eggs incubated under controlled CO2; format: in vivo, chicken
Method: as §1
(§3) Once the chicks hatched, approximately 150 of the male chicks from each batch were taken to grow cages and they began to be fed water and feed. From this point onwards, there was no difference in the treatment of the birds. 28 days after hatching the chickens from each batch were weighed and then stunned. Then the birds were measured for Woody Breast scores by manual palpitation by a trained panel of experts under single-blinded conditions. Each breast was given a score of either 0, 1, 2 or 3. Score 0 means no WB was detected. Score 3 meant very high levels of WB detected and scores 1 and 2 meant intermediate levels of WB were detected.
as §2, with “egg. For this batch, the CO2 concentration inside the incubator varied between ambient atmospheric (i.e. about 409 ppm) and as high as 1,500 ppm (resulting from CO2 generation by the egg).” for “egg.”

[3] = Average bird weight at hatch and at 28 days after CO2 incubation; format: in vivo, chicken
Method: as §1, §3
as §2, with “egg. For this batch, the CO2 concentration inside the incubator varied between ambient atmospheric (i.e. about 409 ppm) and as high as 1,500 ppm (resulting from CO2 generation by the egg).” for “egg.”

Ross 708 chickens = assay: Livability: percentage of hatched birds surviving to 28 days after CO2 incubation; format: in vivo, chicken; settings: for percentage of birds that survived compared to control: 28 days
Method: as §1, with “No external CO2 was injected into the hatcher from any source outside the eggs for this period of 3 days. Thus, the only difference between the conditions under which the three batches were incubated was that in the control batch no additional CO2 was injected, whereas for the other two batches additional, external CO2 was injected to subject the eggs to CO2 concentrations of 4,000 ppm and 10,000 ppm respectively. During the incubation period the oxygen concentration in the control incubator was always above 20%, whereas in the 4,000 ppm and 10,000 ppm CO2 controlled incubators, the oxygen level was typically above 19%.” left out
Once the chicks hatched, approximately 150 of the male chicks from each batch were taken to grow cages and they began to be fed water and feed. […] Then the birds were measured for Woody Breast scores by manual palpitation by a trained panel of experts under single-blinded conditions. […] Score 0 means no WB was detected. Score 3 meant very high levels of WB detected and scores 1 and 2 meant intermediate levels of WB were detected. […]

[4] = Regimen 1, constant 1% CO2 for 18 days

Question: What does the source list for `O=C=O` [CO2, carbon dioxide]?
Answer: percent of fertile eggs that hatched at the end of 21 days of incubation ([1]; Regimen 1, constant 10,000 ppm (1%) CO2 for 18 days, control 88.1%): 93.5%; percent of fertile eggs that hatched at the end of 21 days of incubation ([1]; Regimen 2, 1% CO2 ramp up, control 91%): 94.1%; percent of fertile eggs that hatched at the end of 21 days of incubation ([1]; Regimen 3, 0.75% CO2 on-off, control 88.7%): 96%; percent of fertile eggs that hatched at the end of 21 days of incubation ([1]; constant 4,000 ppm (0.4%) CO2 for 18 days, control 88.1%): 95.6%; % of birds scoring 1 (Woody Breast score) ([2]; Regimen 1, constant 10,000 ppm (1%) CO2 for 18 days, 28 days after hatching, control 24%): 15%; incidence of WB compared to control birds ([2]; Regimen 1, constant 10,000 ppm (1%) CO2 in incubator for 18 days, scored 28 days after hatching): significantly reduced; % of birds scoring 1 (Woody Breast score) ([2]; Regimen 2, 1% CO2 ramp up, 28 days after hatching, control 13%): 8%; incidence of WB compared to control birds ([2]; Regimen 2, CO2 ramp up in equal daily steps to 10,000 ppm (1%) on day 18, 28 days after hatching): significantly reduced; % of birds scoring 2 (Woody Breast score) ([2]; Regimen 3, 0.75% CO2 on-off, 28 days after hatching, control 5%): 1%; % of birds scoring 1 (Woody Breast score) ([2]; Regimen 3, 0.75% CO2 on-off, 28 days after hatching, control 23%): 17%; % of birds scoring 0 (Woody Breast score) ([2]; Regimen 3, 0.75% CO2 on-off, 28 days after hatching, control 73%): 82%; incidence of WB compared to control birds ([2]; Regimen 3, 7,500 ppm (0.75%) CO2 on-off on alternate 24 h periods till day 18, 28 days after hatching): significantly reduced; WB scores compared to control ([2]; constant 4,000 ppm (0.4%) CO2 for 18 days, 28 days after hatching): higher; % of birds scoring 2 (Woody Breast score) ([2]; constant 4,000 ppm (0.4%) CO2 for 18 days, 28 days after hatching, control 1%): 9%; average final weight at 28 days, higher than control by [3, 4]: approximately 5%; increase of average weight just after hatch vs control [3, 4]: approximately 5%; average weight at hatch, lower than control by ([3]; Regimen 2, 1% CO2 ramp up): approximately 6.5%; weight at 28 days compared to control birds ([3]; Regimen 2, 1% CO2 ramp up): slightly heavier; average weight at hatch, lower than control by ([3]; Regimen 3, 0.75% CO2 on-off): approximately 1.5%; weight at 28 days, heavier than control birds by ([3]; Regimen 3, 0.75% CO2 on-off): 11%; more hatched birds surviving to end of 28 days compared to control (Ross 708 chickens; [4]): Approximately 4%; percentage of birds that survived compared to control (Ross 708 chickens; Regimen 2, 1% CO2 ramp up): no statistical difference; percentage of birds that survived compared to control (Ross 708 chickens; Regimen 3, 0.75% CO2 on-off): no statistical difference
